The assay concerns the target T1, PI3Kδ (p110δ/p85α) (Homo sapiens, UniProt O00329).
T1 construct: purchased Millipore (Bedford, Mass.)
The assay can be described thus: PI3Kδ Scintillation Proximity Assay. Type of assay: biochemical. The conditions noted are these: TFA salts of racemates tested; 20 μM PIP2, 20 μM ATP, 4 nM PI3Kδ, 210 min, room temperature. From the text:
[γ-^33P]ATP (10 mCi/mL) was purchased from Perkin-Elmer (Waltham, Mass.). Lipid kinase substrate, D-myo-Phosphatidylinositol 4,5-bisphosphate (PtdIns(4,5)P2)D (+)-sn-1,2-di-O-octanoylglyceryl, 3-O-phospho linked (PIP2), CAS 204858-53-7, was purchased from Echelon Biosciences (Salt Lake City, Utah). PI3Kδ (p110δ/p85α) was purchased from Millipore (Bedford, Mass.). ATP, MgCl2, DTT, EDTA, MOPS and CHAPS were purchased from Sigma-Aldrich (St. Louis, Mo.). Wheat Germ Agglutinin (WGA) YSi SPA Scintillation Beads was purchased from GE healthcare life sciences (Piscataway, N.J.). The kinase reaction was conducted in polystyrene 384-well matrix white plate from Thermo Fisher Scientific in a final volume of 25 μL. Inhibitors were first diluted serially in DMSO and added to the plate wells before the addition of other reaction components. The final concentration of DMSO in the assay was 0.5%. The PI3K assays were carried out at room temperature in 20 mM MOPS, pH 6.7, 10 mM MgCl2, 5 mM DTT and CHAPS 0.03%. Reactions were initiated by the addition of ATP, the final reaction mixture consisted of 20 μM PIP2, 20 μM ATP, 0.2 μCi [γ-^33P] ATP, 4 nM PI3Kδ. Reactions were incubated for 210 min and terminated by the addition of 40 μL SPA beads suspended in quench buffer: 150 mM potassium phosphate pH 8.0, 20% glycerol. 25 mM EDTA, 400 μM ATP. The final concentration of SPA beads was 1.0 mg/mL After the plate sealing, plates were shaken overnight at room temperature and centrifuged at 1800 rpm for 10 minutes, the radioactivity of the product was determined by scintillation counting on Topcount (Perkin-Elmer). IC50 determination was performed by fitting the curve of percent control activity versus the log of the inhibitor concentration using the GraphPad Prism 3.0 software. See Table 1 for data related to compounds of the invention (TFA salts of racemates of each of the compounds were tested).
A general note: In a scintillation proximity assay essentially only radioactivity close to the scintillant gives light.

pIC50: −log10 of the molar value. Structures can show the parent of a compound that is named as a salt.

T1 sequence (O00329 whole entry): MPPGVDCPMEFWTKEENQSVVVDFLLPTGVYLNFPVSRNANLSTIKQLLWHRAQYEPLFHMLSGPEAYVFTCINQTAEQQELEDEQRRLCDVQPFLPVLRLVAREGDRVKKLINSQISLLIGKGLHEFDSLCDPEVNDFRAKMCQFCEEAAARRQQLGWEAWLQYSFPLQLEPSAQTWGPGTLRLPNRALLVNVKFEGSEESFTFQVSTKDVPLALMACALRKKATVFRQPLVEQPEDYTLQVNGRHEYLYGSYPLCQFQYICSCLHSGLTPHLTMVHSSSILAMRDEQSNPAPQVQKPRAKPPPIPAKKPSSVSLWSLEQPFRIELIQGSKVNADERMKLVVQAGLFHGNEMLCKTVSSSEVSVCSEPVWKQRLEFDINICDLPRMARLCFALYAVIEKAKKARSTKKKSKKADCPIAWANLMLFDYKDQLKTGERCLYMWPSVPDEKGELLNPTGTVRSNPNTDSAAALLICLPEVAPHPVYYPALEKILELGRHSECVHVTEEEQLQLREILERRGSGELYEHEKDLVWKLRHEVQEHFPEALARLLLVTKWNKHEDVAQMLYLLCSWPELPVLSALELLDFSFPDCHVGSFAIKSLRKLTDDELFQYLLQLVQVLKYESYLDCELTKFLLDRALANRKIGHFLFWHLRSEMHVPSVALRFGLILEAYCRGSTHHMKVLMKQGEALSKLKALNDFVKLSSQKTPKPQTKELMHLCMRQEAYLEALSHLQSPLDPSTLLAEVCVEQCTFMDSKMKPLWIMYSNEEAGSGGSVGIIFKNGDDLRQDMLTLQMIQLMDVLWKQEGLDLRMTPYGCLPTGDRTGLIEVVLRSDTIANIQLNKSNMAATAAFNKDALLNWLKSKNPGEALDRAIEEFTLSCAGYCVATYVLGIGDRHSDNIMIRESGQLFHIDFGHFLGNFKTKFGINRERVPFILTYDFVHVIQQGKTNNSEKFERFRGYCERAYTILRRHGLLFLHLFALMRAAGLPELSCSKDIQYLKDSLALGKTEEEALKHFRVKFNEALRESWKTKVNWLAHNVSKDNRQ
T1 sequence (P27986 whole entry partner): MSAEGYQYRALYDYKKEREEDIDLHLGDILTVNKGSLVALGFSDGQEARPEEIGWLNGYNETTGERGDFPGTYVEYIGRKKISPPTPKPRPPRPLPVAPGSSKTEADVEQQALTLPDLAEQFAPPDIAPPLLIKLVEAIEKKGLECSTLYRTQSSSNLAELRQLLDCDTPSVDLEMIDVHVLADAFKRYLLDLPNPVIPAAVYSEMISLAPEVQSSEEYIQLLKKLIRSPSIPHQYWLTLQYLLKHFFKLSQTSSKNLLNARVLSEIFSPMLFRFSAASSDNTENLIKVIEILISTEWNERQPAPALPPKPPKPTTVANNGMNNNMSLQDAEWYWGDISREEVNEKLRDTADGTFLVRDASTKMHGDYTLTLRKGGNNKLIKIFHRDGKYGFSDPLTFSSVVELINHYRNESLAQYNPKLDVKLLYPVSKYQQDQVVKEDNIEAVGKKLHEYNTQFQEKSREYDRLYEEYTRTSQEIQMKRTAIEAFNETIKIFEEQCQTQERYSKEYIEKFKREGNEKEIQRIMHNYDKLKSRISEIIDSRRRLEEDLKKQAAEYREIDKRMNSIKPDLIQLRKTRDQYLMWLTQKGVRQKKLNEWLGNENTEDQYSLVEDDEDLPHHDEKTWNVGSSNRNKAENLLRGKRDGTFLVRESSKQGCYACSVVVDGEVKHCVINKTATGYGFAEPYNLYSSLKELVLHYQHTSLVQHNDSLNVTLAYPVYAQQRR

A word on the pIC50: it is the negative decadic logarithm of the IC50, by convention in mol/L. On to `CC(Nc1ncnc2[nH]cnc12)c1c(F)c2cccnc2n1-c1cccc(F)c1` (racemic) [Example 10, N-(1-(3-Fluoro-1-(3-fluorophenyl)-1H-pyrrolo[2,3-b]pyridin-2-yl)ethyl)-9H-purin-6-amine bis(2,2,2-trifluoroacetate)], for which the pIC50 is 6.60 to 7.00. As for `CC(Nc1ncnc2[nH]cnc12)c1cc2cccnc2n1-c1cccc(F)c1` (racemic) [Example 7, N-(1-(1-(3-Fluorophenyl)-1H-pyrrolo[2,3-b]pyridin-2-yl)ethyl)-9H-purin-6-amine bis(2,2,2-trifluoroacetate)], the figure is 6.12 to 6.60. Regarding `CC(Nc1ncnc2[nH]cnc12)c1cc2c(Cl)cccc2n1-c1cccc(F)c1` (racemic) [Example 2, N-{1-[4-Chloro-1-(3-fluorophenyl)-1H-indol-2-yl]ethyl}-9H-purin-6-amine trifluoroacetate], the pIC50 was not below 7.30. `CC(Nc1ncnc2[nH]cnc12)c1c(Cl)c2c(Cl)cccc2n1-c1cccc(F)c1` (racemic) [Example 4, N-{1-[3,4-Dichloro-1-(3-fluorophenyl)-1H-indol-2-yl]ethyl}-9H-purin-6-amine trifluoroacetate]: the pIC50 was 7.00 to 7.30. The figure for `Cc1c(C(C)Nc2ncnc3[nH]cnc23)n(-c2cccc(F)c2)c2ccccc12` (racemic) [Example 8, N-{1-[1-(3-Fluorophenyl)-3-methyl-1H-indol-2-yl]ethyl}-9H-purin-6-amine trifluoroacetate] is not below 7.30; for `CC(Nc1ncnc2[nH]cnc12)c1cc2ccc(Cl)cc2n1-c1cccc(F)c1` (racemic) [Example 1, N-{1-[6-Chloro-1-(3-fluorophenyl)-1H-indol-2-yl]ethyl}-9H-purin-6-amine trifluoroacetate] it is 6.60 to 7.00. The figure for `CC(Nc1ncnc2[nH]cnc12)c1c(C#N)c2ccccc2n1-c1cccc(F)c1` (racemic) [Example 9, 2-(1-(9H-Purin-6-ylamino)ethyl)-1-(3-fluorophenyl)-1H-indole-3-carbonitrile 2,2,2-trifluoroacetate] is not below 7.30. `CC(Nc1ncnc2[nH]cnc12)c1c(Br)c2ccccc2n1-c1cccc(F)c1` (racemic) [Example 5, N-{1-[3-Bromo-1-(3-fluorophenyl)-1H-indol-2-yl]ethyl}-9H-purin-6-amine trifluoroacetate]: the pIC50 is 7.00 to 7.30. Take `CC(Nc1ncnc2[nH]cnc12)c1c(Cl)c2ccccc2n1-c1cccc(F)c1` (racemic) [Example 3, N-{1-[3-Chloro-1-(3-fluorophenyl)-1H-indol-2-yl]ethyl}-9H-purin-6-amine trifluoroacetate]: the pIC50 is not below 7.30. On to `CC(Nc1ncnc2[nH]cnc12)c1c(Cl)c2cccnc2n1-c1cccc(F)c1` (racemic) [Example 6, N-{1-[3-Chloro-1-(3-fluorophenyl)-1H-pyrrolo[2,3-b]pyridin-2-yl]ethyl}-9H-purin-6-amine bis(trifluoroacetate)], for which the pIC50 was not below 7.30.

The values are drawn from patent US9062055B2, “Fused pyrrole derivatives as PI3K inhibitors” (Incyte Corporation, priority 2010, dated 2015).
